Measurements: patent US8552048B2, “Phosphoramidate alkylator prodrugs for the treatment of cancer” (Threshold Pharmaceuticals, Inc., priority 2006, dated 2013)
Read-outs that look alike come from different tables or passages of the source.

Legend:
[1] = Stability of ethanol formulation of TH302 by HPLC; type: physicochemical; conditions: for TH302 (%): 40 μg/mL in ethanol
Procedure: A liquid formulation of TH302 in ethanol was prepared containing 1 mg TH302 in 1 mL of the solution. Aliquots were withdrawn from this formulation and diluted with ethanol to yield a 40 μg/mL formulation of TH302 in ethanol, which was incubated at 20° C. and 37° C. and the stability analyzed by high performance liquid chromatography (HPLC). The HPLC employed the following components and conditions: column (Alltech, Alltima C18, 50×4.6, 3 μm), mobile phase (water and acetonitrile), flow rate 0.8 mL/min, injection volume (10 μL), detection (UV detection at 325 nm and 254 nm), and column temperature (room temperature). The composition of the mobile phase was as tabulated below: […]

[2] = tested on: IGROV1 human ovarian cancer cells; assay: IGROV1 ovarian cancer xenograft; type: in vivo; conditions: 75 mg/kg i.v. Q7D×2
Procedure: Forty nude mice were subcutaneously implanted with IGROV1 human ovarian cancer cells (5×10^6 cells/mouse). The tumor volumes were measured twice weekly starting on day 7. On day 8, tumor volumes reached about 97.7±3.9 mm^3. The mice were randomized in 3 treatment groups that were administered the following: CDDP (4 mg/kg, ip, Q7D×2), CDDP (6 mg/kg, i.p. Q7D×2), and TH302 (75 mg/kg, i.v., Q7D×2). A control group of mice were administered saline. […] Forty five days after the first administration of TH302, tumor growth inhibition was 66%. The tumor growth delay (to 300 mm^3) was 19 days.

[3] = GLP multiple-dose toxicity study in rats; type: in vivo
Procedure: (§1) Each rat received a 30 minute infusion once a week for three weeks (Q7D×3).

[4] = Pharmacokinetics after repeated administration (Q7D×3) to rats; type: in vivo; conditions: rat, plasma; for clearance / AUC / Cmax / half-life / Vd: iv, TH302 in rats; for AUC: read-out: AUC; for Cmax: read-out: Cmax; for half-life: read-out: Half-Life (converted); for Vd: read-out: Vss
Procedure: as §1
Br-IPM being capable of reacting with water and a number of other nucleophiles, for HPLC analysis of Br-IPM, the plasma obtained was frozen and treated with NaF and potassium oxalate.

[5] = Pharmacokinetics in beagle dogs (20 mg/kg i.v.); type: in vivo; conditions: dog, plasma, iv
Procedure: Pharmacokinetic studies were performed in male CD-1 (50 mg/kg i.p. or orally (p.o.)) or female nude mice (50 mg/kg i.v. or i.p.), male Sprague-Dawley rats (1, 5, 20 and 50 mg/kg i.v. and 100 mg/kg, p.o.), beagle dogs (20 mg/kg, i.v.) and cynomologus monkeys (20 mg/kg i.v.). Plasma TH302 concentrations were analyzed using a LC/MS method and the pharmacokinetic parameters computed using a noncompartmental method. Interspecies scaling was performed according to standard methods.

## Cn1c(COP(=O)(NCCBr)NCCBr)cnc1[N+](=O)[O-] [TH302]
[1]; 20° C., incubated 0 days
  TH302 (%): 96.97%
[1]; 20° C., incubated 3 days
  TH302 (%): 96.98%
[1]; 20° C., incubated 5 days
  TH302 (%): 96.91%
[1]; 20° C., incubated 7 days
  TH302 (%): 96.96%
[1]; 20° C., incubated 10 days
  TH302 (%): 96.95%
[1]; 20° C., incubated 14 days
  TH302 (%): 96.98%
[1]; 37° C., incubated 0 days
  TH302 (%): 96.97%
[1]; 37° C., incubated 3 days
  TH302 (%): 96.95%
[1]; 37° C., incubated 5 days
  TH302 (%): 96.98%
[1]; 37° C., incubated 7 days
  TH302 (%): 96.98%
[1]; 37° C., incubated 10 days
  TH302 (%): 96.30%
[1]; 37° C., incubated 14 days
  TH302 (%): 96.01%
[1]; 37° C., incubated 24 days
  TH302 (%): 95.46%
[1]; 20° C., under the test conditions
  stability of solution in ethyl alcohol: stable
[2]
  body weight during the treatment period: body weight gain
  tumor growth delay (to 300 mm^3): 19 days
[2]; P<0.05
  growth inhibition (significance): significant growth inhibition
[2]; forty five days after the first administration
  tumor growth inhibition: 66%
[3]; 25 mg/kg rat dose divided by 6.2
  human equivalent dose of the minimally toxic dose: about 4 mg/kg
[3]; rat
  minimally toxic dose: 25 mg/kg
[3]; rats, 50 mg/kg Q7D×3
  histopathology at the highest dose: effects on the bone marrow and the tongue with minor effects on the kidney and the uterus
[3]; rats, 12.5, 25 and 50 mg/kg, 30 minute infusion Q7D×3
  primary toxicities: hematologic in nature and were reversible
[4]; intravenous, rats, 25 mg/kg dose of TH302, read-out: drug exposure, AUC of TH302
  AUC at 15 day: ~2110 ng·h/mL
[4]; 12.5 mg/kg Q7D×3, Day 15
  clearance: 293 mL/min/kg
  AUC: 699 ng·h/mL
  Cmax: 1210 ng/mL
  half-life: 16 min
  Vd: 8.71 L/kg
[4]; 25 mg/kg Q7D×3, Day 15
  clearance: 275 mL/min/kg
  AUC: 2110 ng·h/mL
  Cmax: 3640 ng/mL
  half-life: 18.7 min
  Vd: 8.28 L/kg
[4]; 50 mg/kg Q7D×3, Day 15
  clearance: 197 mL/min/kg
  AUC: 3250 ng·h/mL
  Cmax: 5720 ng/mL
  half-life: 20.8 min
  Vd: 5.84 L/kg
[5]; read-out: Mean t1/2
  half-life: 49.2 min
[5]; read-out: mean Cl (converted)
  clearance: 54.7 mL/min/kg
[5]; read-out: mean Vss
  Vd: 1.98 L/kg
